Data on 63 compounds can be found in US6683079B2, “3-(amino-or aminoalkyl) pyridinone derivatives and their use for the treatment of HIV related diseases” (Centre National de la Recherche Scientifique, priority 1998, dated 2004).

Structures are written as SMILES.

One assay concerns HIV-1 strain IIIB. Description: Retrovirucidal effect on HIV-1 strain IIIB (Table 3). In kind it is cell-based. As for the experimental part:
(§1) HIV-1 viral suspensions were obtained by coculture of MT4 cells and H9 cells chronically infected by HIV-ILai isolate. 200 μl of a cell supernatant containing viral particles (HIV-ILai: 100 TCID50) were incubated at room temperature with various concentrations of different inhibitors. After 3 hours, virions were washed through 0.02 μm anopore membrane in 1.5 mL Vectaspin tube (Whatman) for 10 minutes at 5 000 g. Each of the three subsequent washes was performed in the same conditions after the viral concentrate was refilled with 500 μL of RPMI medium. Then, the viral concentrate was readjusted to the initial volume with RPMI plus 10% foetal calf serum (FCS). The residual infectivity was assayed on P4 cells as described by CHARNEAU et al. (1994, J. Mol. Biol., 241, 651-662). Briefly, P4 cells were plated using 100 μL of DMEM medium plus 10% FCS in 96 plate multi-wells at 20×10^5 cells per mL. After overnight incubation at 37° C., the supernatant was discarded and the viral preparation (200 μL) was added. One day later the wells were washed three times in PBS. Each well was refilled with 200 μL of a reaction buffer containing 50 mM Tris-HCl pH 8.5, 100 mM 2-mercaptoethanol, 0.05% Triton X-100 and 5 mM 4-methylumbelliferyl β-D-galactopyranoside (MUG). After 3 hours at 37° C., the level of the reaction was measured in a fluorescence microplate reader.
(§2) The retrovirucidal effect of each pyridinone derivative listed in table 3 has been assayed according to the teachings of example 2, excepted that the anti-viral effect has been tested on the two following HIV-1 strains:
a) HIV-1 strain IIIB (see example 2);

Another assay relates to HIV-1 strain 103 N. Description: Retrovirucidal effect on HIV-1 strain 103 N (Table 3). As to conditions: HIV-1 strain 103N (RT Lys-103 to Asn mutant); pIC50=-log IC50, IC50 in M. The class given is cell-based. The protocol: as §1, §2
b) HIV-1 strain 103 N which is a mutant strain bearing a point mutation in the reverse transcriptase gene leading to an enzyme wherein the initial Lys-103 residue is replaced for a Asn residue.
The HIV-1 103 N strain has also been described by SAHLBERG et al.,(1998, Antiviral Res., 37 (3): ASS) and BALZARiNI et al. (1996, Antimicrobial Agents and Chemotherapy, 40 (6): 1454-1466).

The mark [1] stands for this setting: retrovirucidal effect, pIC50=-log IC50 (M).

Take `CCc1c(C)[nH]c(=O)c(N)c1Sc1cc(C)cc(C)c1` [Compound 1]: the “HIV1 pIC50 (pIC50=−log IC50)” value in the assay with HIV-1 strain IIIB is listed as 7,6999. In the assay with HIV-1 strain IIIB (pIC50=-log IC50, IC50 in M), the “HIV1 pIC50 strain IIIB” value amounted to 7.699. For the same compound, the “HIV1 pIC50 strain 103N” value in the assay on HIV-1 strain 103 N is on record as 6.671.
With `CCc1c(C)[nH]c(=O)c(N)c1C(=O)c1cc(C)cc(C)c1` [Compound 2], the “HIV1 pIC50 strain IIIB” value with HIV-1 strain IIIB (pIC50=-log IC50, IC50 in M) amounted to 6.612. Besides, in the assay with HIV-1 strain 103 N, the “HIV1 pIC50 strain 103N” value is given as 6.64.
Take `CCc1c(C)[nH]c(=O)c(N(C)C)c1Cc1ccc(Cl)cc1` [Compound 55]: the “HIV1 pIC50 strain IIIB” value in the assay with HIV-1 strain IIIB (pIC50=-log IC50, IC50 in M) amounted to 6.651.
On the same count and under the same terms, with `CCc1c(C)[nH]c(=O)c(N(C)C)c1Cc1nccn1C` [Compound 88] the figure was less than 4; with `CCCCc1cc(Cc2cc(C)cc(C)c2)c(N)c(=O)[nH]1` [Compound 89], 6.237; with `CCCCc1cc(Cc2cc(C)cc(C)c2)c(N(C)C)c(=O)[nH]1` [Compound 90], 6.359.
The same measure, in the same setting: for `Cc1cccc(Cc2c3c([nH]c(=O)c2N)CCCC3)c1` [Compound 91] the value was 5.73; for `Cc1cccc(Cc2c3c([nH]c(=O)c2N(C)C)CCCC3)c1` [Compound 92], 7.807; for `CCc1c(C)[nH]c(=O)c(N(C)C)c1C(=O)c1cccc(C)c1` [Compound 93], 8.721.
On the same count and under the same terms, for `Cc1cccc(C(=O)c2c(C)c(C)[nH]c(=O)c2N)c1` [Compound 94] the value was 5.153.
In the case of `CCc1c(C)[nH]c(=O)c(N(CC)CC)c1C(=O)c1cccc(C)c1` [Compound 95], the “HIV1 pIC50 strain IIIB” value with HIV-1 strain IIIB (pIC50=-log IC50, IC50 in M) is on record as 8.268.
On the same count and under the same terms, with `CCCc1cccc(Cc2c(CC)c(C)[nH]c(=O)c2N)c1` [Compound 103] the figure was 5.747.
Same read-out and setting: for `Cc1cc(C)cc(Cc2c(Cl)c[nH]c(=O)c2N)c1` [Compound 105] the value was 4.943; for `Cc1cc(C)cc(Cc2c(Cl)c[nH]c(=O)c2N(C)C)c1` [Compound 106], 7.063; for `CCc1[nH]c(=O)c(N(C)C)c(C(=O)c2cccc(C)c2)c1C` [Compound 108], 7.005.
Still for that read-out and setting: for `CCc1c(C)[nH]c(=O)c(N(C)C)c1Cc1cccc(CO)c1` [Compound 110] the value was 7.783; for `CCc1c(C)[nH]c(=O)c(N)c1C(=O)c1ccc2c(c1)OCCO2` [Compound 111], less than 4.
In the case of `CCc1c(C)[nH]c(=O)c(N(C)C)c1C(=O)c1ccc2c(c1)OCCO2` [Compound 112], the “HIV1 pIC50 strain IIIB” value in the assay with HIV-1 strain IIIB (pIC50=-log IC50, IC50 in M) stood at 6.394.
Turning to `CCc1c(C)[nH]c(=O)c(N)c1Cc1cccc2ccccc12` [Compound 113], the “HIV1 pIC50 strain IIIB” value in the assay on HIV-1 strain IIIB (pIC50=-log IC50, IC50 in M) came to 5.273.
Still for that read-out and setting: for `CCc1c(C)[nH]c(=O)c(N(C)C)c1Cc1cccc2ccccc12` [Compound 116] the value was 6.627.
On the same count and under the same terms, for `Cc1cc(C)cc(Cc2c(C)c(C(C)C)[nH]c(=O)c2N)c1` [Compound 118] the value was 4.042; for `Cc1cc(C)cc(Cc2c(C)c(C(C)C)[nH]c(=O)c2N(C)C)c1` [Compound 119], 6.114.
On the same count and under the same terms, for `CCc1c(C)[nH]c(=O)c(N)c1Cc1cccc(OC)c1` [Compound 120] the value was 5.033; for `CCc1c(C)[nH]c(=O)c(N(C)C)c1Cc1cccc(O)c1` [Compound 122], 7.196; for `CCc1c(C)[nH]c(=O)c(N)c1C(=O)Cc1cccc(C)c1` [Compound 124], 4.389.
Consider `CCc1c(C)[nH]c(=O)c(N(C)C)c1C(=O)Cc1cccc(C)c1` [Compound 127], for which, in the assay with HIV-1 strain IIIB (pIC50=-log IC50, IC50 in M), the “HIV1 pIC50 strain IIIB” value came out at 4.174.
Same read-out and setting: for `CCc1c(C)[nH]c(=O)c(N(C)C)c1C(=O)c1cccc(CO)c1` [Compound 128] the value was 7.848; for `Cc1cccc(Cc2c3c([nH]c(=O)c2N)CCC3)c1` [Compound 131], 5.799.
For the compound `Cc1cccc(Cc2c3c([nH]c(=O)c2N(C)C)CCC3)c1` [Compound 132], the “HIV1 pIC50 strain IIIB” value with HIV-1 strain IIIB (pIC50=-log IC50, IC50 in M) turned out to be 7.863.
On the same count and under the same terms, for `CCc1c(C)[nH]c(=O)c(N(C)C)c1CN(C)c1cc(C)cc(C)c1` [Compound 133] the value was 4.94; for `CCc1c(C)[nH]c(=O)c(N)c1Cc1ccc2c(c1)OCCO2` [Compound 134], 4.056; for `CCc1c(C)[nH]c(=O)c(N(C)C)c1Cc1ccc2c(c1)OCCO2` [Compound 135], 6.688.
Still for that read-out and setting: with `CCc1c(C)[nH]c(=S)c(N(C)C)c1Cc1cc(C)cc(C)c1` [Compound 137] the figure was 7.658; with `CCc1c(C)[nH]c(=O)c(NC)c1Cc1cccc(C(F)(F)F)c1` [Compound 139], 6.908.
The same measure, in the same setting: for `CCc1c(C)[nH]c(=O)c(N)c1C(=O)c1cccc(C(F)(F)F)c1` [Compound 140] the value was 5.766; for `CCc1c(C)[nH]c(=O)c(N)c1Cc1ccc2c(c1)OCO2` [Compound 141], 4.642.
With `Cc1cccc(C(=O)c2c3c([nH]c(=O)c2N)CCC3)c1` [Compound 142], in the assay with HIV-1 strain IIIB (pIC50=-log IC50, IC50 in M), the “HIV1 pIC50 strain IIIB” value was 4.889.
On the same count and under the same terms, for `CCc1c(C)[nH]c(=O)c(N(C)C)c1C(=O)c1cccc(COc2ccccc2)c1` [Compound 143] the value was 7.421; for `CCc1c(C)[nH]c(=O)c(N(C)CCOCc2ccccc2)c1Cc1cccc(C)c1` [Compound 144], 6.446; for `CCc1c(C)[nH]c(=O)c(N(C)C)c1Cc1ccc2c(c1)OCO2` [Compound 147], 7.721.
Still for that read-out and setting: with `Cc1cccc(C(=O)c2c3c([nH]c(=O)c2N(C)C)CCC3)c1` [Compound 148] the figure was 7.863; with `CCc1c(C)[nH]c(=O)c(N)c1C(=O)c1ccc2c(c1)OCO2` [Compound 150], 4.881; with `CCc1c(C)[nH]c(=O)c(N(C)C)c1C(=O)c1ccc2c(c1)OCO2` [Compound 151], 7.845.
Still for that read-out and setting: with `CCc1c(Cc2cc(C)cc(C)c2)c(N(C)C)c(=O)n(-c2ccccc2)c1C` [Compound 152] the figure was 4.21; with `CCc1c(Cc2cc(C)cc(C)c2)c(N(C)C)c(=O)n(N)c1C` [Compound 153], 6.749.
As to `CCc1c(C)[nH]c(=O)c(N(C)CCC(C)C)c1Cc1cccc(C)c1` [Compound 155], the “HIV1 pIC50 strain IIIB” value in the assay on HIV-1 strain IIIB (pIC50=-log IC50, IC50 in M) is recorded as 7.514.
Still for that read-out and setting: for `CCc1c(C)[nH]c(=O)c(N)c1Cc1ccc(OC)c(C)c1` [Compound 156] the value was 4.934; for `CCc1c(C)[nH]c(=O)c(N(C)C)c1Cc1ccc(OC)c(C)c1` [Compound 157], 6.413; for `CCc1c(C)[nH]c(=O)c(N)c1Sc1cccc(C)c1` [Compound 159], 7.011.
Same read-out and setting: for `CCc1c(C)[nH]c(=O)c(N(CCOC)CCOC)c1Cc1cccc(C)c1` [Compound 180] the value was 5.988; for `CCOc1cccc(Cc2c(CC)c(C)[nH]c(=O)c2N(C)C)c1` [Compound 181], 7.928; for `CCc1c(C)[nH]c(=O)c(N)c1C(=O)c1cc(F)cc(C(F)(F)F)c1` [Compound 182], 5.933.
The same measure, in the same setting: for `CCc1c(C)[nH]c(=O)c(N(C)C)c1C(=O)c1cc(F)cc(C(F)(F)F)c1` [Compound 183] the value was 8.481; for `CCc1c(C)[nH]c(=O)c(N)c1C(=O)c1cc(Br)cs1` [Compound 186], 5.781; for `CCc1c(C)[nH]c(=O)c(N)c1Sc1cccc(Br)c1` [Compound 188], 7.063.
Consider `CCc1c(C)[nH]c(=O)c(N)c1Cc1cc(Cl)cc(Cl)c1` [Compound 189], for which the “HIV1 pIC50 strain IIIB” value in the assay on HIV-1 strain IIIB (pIC50=-log IC50, IC50 in M) is recorded as 6.401.
On the same count and under the same terms, with `CCc1c(C)[nH]c(=O)c(N)c1C(=O)c1cc(Cl)cc(Cl)c1` [Compound 190] the figure was 7.757; with `CCc1c(C)[nH]c(=O)c(N)c1C(=O)c1ccc(Br)s1` [Compound 194], 4.665; with `CCc1c(C)[nH]c(=O)c(N(C)C)c1C(=O)c1cccc(-c2ccccc2)c1` [Compound 196], 6.411.
As for `CCc1c(C)[nH]c(=O)c(N)c1Oc1cc(C)cc(C)c1` [Compound 197], the “HIV1 pIC50 strain IIIB” value in the assay with HIV-1 strain IIIB (setting [1]) was found to be 7.307.
On the same count and under the same terms, with `Cc1c[nH]c(=O)c(N)c1SCc1ccccc1` [Compound 198] the figure was 4.457; with `CCc1c(C)[nH]c(=O)c(N)c1Cc1ccccc1Br` [Compound 202], 5.715.
Same read-out and setting: for `CCc1c(C)[nH]c(=O)c(N(C)C)c1Cc1ccccc1Br` [Compound 203] the value was 8.161.
